In assay [1] the test system is primary human T-cells. The assay can be described thus: Proliferation assay after 5 days (CellTiter-Glo, CD3 stimulation; PBS counter screen). Type of assay: cell-based. The conditions noted are these: CD3 stimulation; for Emax / Emax proliferation (% activation): 5 days, normalized to reference compound A1 as stimulator control = 100%, DMSO neutral control; for Emax: read-out: Emax proliferation (% activation); for EC50: primary human T-cells, CellTiter-Glo after 5 days, EC50 of fitted sigmoidal curve, read-out: Tcell Proliferation CD3 EC50. The essentials:
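Compounds were added to medium-only plates, and proliferation was read 5 days later as luminescence from CellTiter-Glo 2.0, whose ATP signal is proportional to cell number. Plates and reagent were equilibrated to room temperature for 45 min before an equal volume of reagent was added, with 15 min rocking.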
In general terms: Cellular ATP, detected with luciferase, serves as a proxy for viable cell number.

Assay [2] concerns primary human T-cells.

Read-outs that look alike come from different tables or passages of the source.

With `N[C@H]1CS(=O)(=O)c2cc(F)c(-c3noc(C(F)(F)C(F)(F)F)n3)cc2N(Cc2ccc(Cl)cc2)C1=O` [Example 326, (3R)-3-amino-5-[(4-chlorophenyl)methyl]-8-fluoro-1,1-dioxo-7-[5-(1,1,2,2,2-pentafluoroethyl)-1,2,4-oxadiazol-3-yl]-2,3-dihydro-1λ^6,5-benzothiazepin-4-one], in the assay with primary human T-cells [1] (Homo sapiens, T-cell, 120 h), the Emax amounted to 129% and the EC50 worked out at 0.908 µM. Further, in the assay with primary human T-cells [2], the EC50 is 0.703 µM.
`NC(Cn1nnc(-c2cc3c(cc2F)S(=O)(=O)C[C@H](N)C(=O)N3Cc2ccc(Cl)cc2)n1)C(F)(F)F` (stereo partly drawn) [Example 14, (3R)-3-amino-7-[2-(2-amino-3,3,3-trifluoro-propyl)tetrazol-5-yl]-5-[(4-chlorophenyl)methyl]-8-fluoro-1,1-dioxo-2,3-dihydro-1λ^6,5-benzothiazepin-4-one]: in the assay with primary human T-cells [1] (Homo sapiens, T-cell, 120 h), the Emax was determined as 131% and the EC50 came to 0.81 µM. In the assay on primary human T-cells [2], this compound returned an EC50 of 0.917 µM.
On the same counts, the results for `COC(C#N)c1nnc(-c2ccc3c(c2)N(Cc2ccc(Cl)cc2)C(=O)[C@@H](N)CS3(=O)=O)o1` (stereo partly drawn) [Example 370, 2-[5-[(3R)-3-amino-5-[(4-chlorophenyl)methyl]-1,1,4-trioxo-2,3-dihydro-1λ^6,5-benzothiazepin-7-yl]-1,3,4-oxadiazol-2-yl]-2-methoxy-acetonitrile] are 31%, more than 10 µM and 5.1 µM.
On the same counts, the results for `CC1(c2nnc(-c3cc4c(cc3F)S(=O)(=O)C[C@H](N)C(=O)N4Cc3ccc(Cl)cc3)o2)CCN(S(C)(=O)=O)CC1` [Example 170, (3R)-3-amino-5-[(4-chlorophenyl)methyl]-8-fluoro-7-[5-(4-methyl-1-methylsulfonyl-4-piperidyl)-1,3,4-oxadiazol-2-yl]-1,1-dioxo-2,3-dihydro-1λ^6,5-benzothiazepin-4-one] are 97%, 1.5 µM and 0.405 µM.
On the same counts, the results for `N[C@H]1CS(=O)(=O)c2cc(F)c(-c3nnc(N4CCC5(CC4)COC5)o3)cc2N(Cc2ccc(Cl)cc2)C1=O` [Example 478, (3R)-3-amino-5-[(4-chlorophenyl)methyl]-8-fluoro-7-[5-(2-oxa-7-azaspiro[3.5]nonan-7-yl)-1,3,4-oxadiazol-2-yl]-1,1-dioxo-2,3-dihydro-1λ^6,5-benzothiazepin-4-one] are 87%, 1.32 µM and 0.832 µM.
For `CC[C@H](O)C(=O)N[C@H]1CS(=O)(=O)c2cc(F)c(-c3nnc(C(C)(C)C)o3)cc2N(Cc2ccc(Cl)cc2)C1=O` [Example 260, (2S)-N-[(3R)-7-(5-tert-butyl-1,3,4-oxadiazol-2-yl)-5-[(4-chlorophenyl)methyl]-8-fluoro-1,1,4-trioxo-2,3-dihydro-1λ^6,5-benzothiazepin-3-yl]-2-hydroxy-butanamide], in the assay on primary human T-cells [1] (Homo sapiens, T-cell, 120 h), the Emax came out at 82% and the EC50 came to 1.82 µM. Further, the EC50 with primary human T-cells [2] is more than 20 µM.
On the same counts, the results for `N[C@H]1CS(=O)(=O)c2cc(F)c(-c3nnc(N4CC5(CCCO5)C4)o3)cc2N(Cc2ccc(Cl)cc2)C1=O` [Example 505, (3R)-3-amino-5-[(4-chlorophenyl)methyl]-8-fluoro-7-[5-(5-oxa-2-azaspiro[3.4]octan-2-yl)-1,3,4-oxadiazol-2-yl]-1,1-dioxo-2,3-dihydro-1λ^6,5-benzothiazepin-4-one] are 94%, 0.181 µM and 0.191 µM.
Regarding `COC(F)(c1nnc(-c2ccc3c(c2)N(Cc2ccc(OC(F)(F)F)cc2)C(=O)[C@@H](N)C[S+]3[O-])o1)C(F)(F)F` (single isomer, unassigned; epimer b) [Example 426], in the assay with primary human T-cells [1], the “Emax proliferation (% activation)” value was 109 % activation. The figures for the EC50 with primary human T-cells [1] and with primary human T-cells [2] were 1.4 µM and 1.29 µM, respectively.
Regarding `CC(C)(C)c1nnc(-c2ccc3c(c2)N(Cc2ccc(OCC(F)(F)F)cc2)C(=O)[C@@H](N)CS3(=O)=O)o1` [Example 429, (3R)-3-amino-7-(5-tert-butyl-1,3,4-oxadiazol-2-yl)-1,1-dioxo-5-[[4-(2,2,2-trifluoroethoxy)phenyl]methyl]-2,3-dihydro-1λ^6,5-benzothiazepin-4-one], the Emax in the assay with primary human T-cells [1] (Homo sapiens, T-cell, 120 h) was 103%. Also, the EC50 came to 4.85 µM with primary human T-cells [1] (Homo sapiens, T-cell, 120 h) and 0.96 µM in the assay on primary human T-cells [2].
On the same counts, the results for `CC(C)(C)c1nnc(-c2cc3c(cc2F)S(=O)(=O)C[C@H](N)C(=O)N3Cc2ccc(OCCCCCCCCCCCN)cc2)o1` [Example 257, (3R)-3-amino-5-[[4-(11-aminoundecoxy)phenyl]methyl]-7-(5-tert-butyl-1,3,4-oxadiazol-2-yl)-8-fluoro-1,1-dioxo-2,3-dihydro-1λ^6,5-benzothiazepin-4-one] are 142%, less than 0.162 µM and more than 20 µM.
On the same counts, the results for `CC(C)Oc1ccc(CN2C(=O)[C@@H](N)CS(=O)(=O)c3cc(F)c(-c4noc(C5CN(C)CC(F)(F)C5)n4)cc32)cn1` (stereo partly drawn) [Example 347, (3R)-3-amino-7-[5-(5,5-difluoro-1-methyl-3-piperidyl)-1,2,4-oxadiazol-3-yl]-8-fluoro-5-[(6-isopropoxy-3-pyridyl)methyl]-1,1-dioxo-2,3-dihydro-1λ^6,5-benzothiazepin-4-one] are 151%, 0.977 µM and 3.5 µM.
On the same counts, the results for `N[C@H]1CS(=O)(=O)c2cc(F)c(-c3nnc(N4CCC4)o3)cc2N(Cc2ccc(Cl)cc2)C1=O` [Example 191, (3R)-3-amino-7-[5-(azetidin-1-yl)-1,3,4-oxadiazol-2-yl]-5-[(4-chlorophenyl)methyl]-8-fluoro-1,1-dioxo-2,3-dihydro-1λ^6,5-benzothiazepin-4-one] are 184%, 1.28 µM and 11.4 µM.
As to `CC(C)(C)c1nnc(-c2cc3c(cc2F)S(=O)(=O)C[C@H](NC(=O)CCN)C(=O)N3Cc2ccc(Cl)cc2)o1` [Example 264, 3-amino-N-[(3R)-7-(5-tert-butyl-1,3,4-oxadiazol-2-yl)-5-[(4-chlorophenyl)methyl]-8-fluoro-1,1,4-trioxo-2,3-dihydro-1λ^6,5-benzothiazepin-3-yl]propanamide], in the assay on primary human T-cells [1] (Homo sapiens, T-cell, 120 h), the Emax worked out at 106% and the EC50 amounted to 2.7 µM. Moreover, the EC50 in the assay with primary human T-cells [2] was determined as 8.1 µM.
On the same counts, the results for `COCC1(Nc2nnc(-c3ccc4c(c3)N(Cc3ccc(Cl)cc3)C(=O)[C@@H](N)CS4(=O)=O)o2)CC(F)(F)C1` [Example 403, (3R)-3-amino-5-[(4-chlorophenyl)methyl]-7-[5-[[3,3-difluoro-1-(methoxymethyl)cyclobutyl]amino]-1,3,4-oxadiazol-2-yl]-1,1-dioxo-2,3-dihydro-1λ^6,5-benzothiazepin-4-one] are 83%, 1.15 µM and 3.68 µM.
`CC(Nc1nnc(-c2cc3c(cc2F)S(=O)(=O)C[C@H](N)C(=O)N3Cc2ccc(Cl)cc2)o1)C1CC1(F)F` (single isomer, unassigned) [Example 496]: in the assay on primary human T-cells [1], the “Emax proliferation (% activation)” value is 91 % activation and the EC50 was found to be 1.15 µM. Besides, the EC50 in the assay with primary human T-cells [2] was more than 10 µM.
For `CC(C)(c1nnc(-c2cc3c(cc2F)S(=O)(=O)C[C@H](N)C(=O)N3Cc2ccc(Cl)cc2)o1)C(N)C(F)(F)F` (stereo partly drawn) [Example 136, (3R)-3-amino-7-[5-(2-amino-3,3,3-trifluoro-1,1-dimethyl-propyl)-1,3,4-oxadiazol-2-yl]-5-[(4-chlorophenyl)methyl]-8-fluoro-1,1-dioxo-2,3-dihydro-1λ^6,5-benzothiazepin-4-one], in the assay on primary human T-cells [1] (Homo sapiens, T-cell, 120 h), the Emax was 99% and the EC50 came to 0.114 µM. The same compound showed an EC50 with primary human T-cells [2] of 0.187 µM.
For the compound `CC(C)(C)c1nnc(-c2cc3c(cc2F)S(=O)(=O)C[C@H](N)C(=O)N3Cc2ccc(OCC(N)=O)cc2)o1` [Example 236, 2-[4-[[(3R)-3-amino-7-(5-tert-butyl-1,3,4-oxadiazol-2-yl)-8-fluoro-1,1,4-trioxo-2,3-dihydro-1λ^6,5-benzothiazepin-5-yl]methyl]phenoxy]acetamide], in the assay with primary human T-cells [1] (Homo sapiens, T-cell, 120 h), the Emax came to 98%. For the same compound, the EC50 in the assay on primary human T-cells [1] (Homo sapiens, T-cell, 120 h) was 3.24 µM; with primary human T-cells [2], 3.23 µM.
On the same counts, the results for `CC(=O)N1CCC(c2nnc(-c3cc4c(cc3F)S(=O)(=O)C[C@H](N)C(=O)N4Cc3ccc(Cl)cc3)o2)CC1` [Example 168, (3R)-7-[5-(1-acetyl-4-piperidyl)-1,3,4-oxadiazol-2-yl]-3-amino-5-[(4-chlorophenyl)methyl]-8-fluoro-1,1-dioxo-2,3-dihydro-1λ^6,5-benzothiazepin-4-one] are 63%, 4.95 µM and 1.59 µM.
On the same counts, the results for `COC1CCN(c2ccc(CN3C(=O)[C@@H](N)CS(=O)(=O)c4ccc(-c5nnc(C(C)(C)C)o5)cc43)cc2)CC1` [Example 447, (3R)-3-amino-7-(5-tert-butyl-1,3,4-oxadiazol-2-yl)-5-[[4-(4-methoxy-1-piperidyl)phenyl]methyl]-1,1-dioxo-2,3-dihydro-1λ^6,5-benzothiazepin-4-one] are 113%, more than 10 µM and 2.54 µM.
On the same counts, the results for `CC(C)(C#N)c1nnc(-c2cc3c(cc2F)S(=O)(=O)C[C@H](N)C(=O)N3Cc2ccc(Cl)cc2)o1` [Example 104, 2-methyl-2-[5-[(3R)-3-amino-5-[(4-chlorophenyl)methyl]-8-fluoro-1,1,4-trioxo-2,3-dihydro-1λ^6,5-benzothiazepin-7-yl]-1,3,4-oxadiazol-2-yl]propanenitrile] are 112%, 0.15 µM and 0.277 µM.

Values taken from patent US20240368150A1 (Hoffmann-La Roche Inc., priority 2021, published 2024).
